# Key:
# MC38 cells = assay: Cell cycle analysis of MC38 cells by propidium iodide staining (flow cytometry); format: cell-based, mouse; settings: 48-hour stimulation; BW-723C86 50 μM, SB-215505 50 μM per FIG. 6 legend
# Procedure: FIG. 6 depicts that 5-HTR2B signalling in colon cancer affects cell proliferation and viability: Colon cancer MC38 cells were treated with serotonin (100 μM), 5-HTR2B agonist (BW-723C86; 50 μM), or 5-HTR2B antagonist (SB-215505; 50 μM) for 48 hours, and cell cycle analysis was performed by propidium iodide staining using flow cytometry. MC38 cells were also treated with a graded dose of 5-HTR2B agonist (BW-723C86) or serotonin. MTT assay was performed to measure cell viability. (A) After treatment with 5-HTR2B agonist BW-723C86, serotonin, or 5-HTR2B antagonist SB-215505, the relative cell cycle analysis is shown. (B) Relative cell viability data of MC38 cells following treatment of graded doses of 5-HTR2B agonist BW-723C86 or serotonin are shown. The data shown are representative of one of the three independent experiments. (C) MC38 tumor sections from the control tumor and 5-HTR2B antagonist treated tumor were stained for CD31 and the number of CD31^+ micro-blood vessels/mm^2 of tissue sections was counted and plotted to observe angiogenesis. Error bar represents ±standard error of the mean (SEM).
# MC38 cells were seeded in 6 well plates at a density of 5×10^4 cells/well. Cells were allowed to accommodate in the environment for 24 hours. The treatment with 5-HTR2B agonist (BW-723C86), Serotonin, and 5-HTR2B antagonist (RS-127445) was performed at different time points. […]
# [1] = test system: OVA-specific CD8 and CD4 T cells in MC38-cOVA tumor; assay: OVA-specific T cell response in MC38-cOVA tumor-bearing mice (CFSE, tetramer flow cytometry); format: in vivo
# Procedure: FIG. 11 depicts the effect of 5-HTR antagonists on the antigen-specific CTL response MC38 tumor model in mice: (A) Representative experimental plan of the adoptive transfer experiment where NRG mice. In brief, NRG mice were inoculated with MC38 on one flank and B16F10 cells on the other. These mice received total lymph node cells from naïve C57BL/6J mice or MC38 tumor-bearing control or RS-127445 treated mice. (B) Tumor volume data from the above-described experiment was measured and plotted (C) Immunocytochemistry data showing expression of H2-Kb-[…]^+ (red) on MC38 cells transfected with pCL-neo-OVA plasmid on the right side and MC38 cells without transfection. DAPI is used as a counterstain. (D-E) C7BL/6J mice were inoculated with an MC38-ova cell line and treated with RS-127445 or left untreated. After 10 days of such treatment, Total lymph node cells were harvested tagged with CFSE, and cultured in the presence of ovalbumin protein (50 μg/ml) for 5 days. After 5 days cells were checked for CFSE expression by flow cytometry to check proliferation. Here is the data (D) showing the CFSE in CD8^+ cells. The statistical data of the total percentage of CFSE^− CD8 T cells corresponding with the percentage of proliferated CD8 T cells were plotted. (F-G) Flow cytometric data and statistical analysis of the percentage of intra-tumoral H-2Kb^− […] tetramer^+ CD8 population from the control and RS-127445 treated MC38-ova tumor-bearing mice. (H-I) Flow cytometric data and statistical analysis of the percentage of intra-tumoral H-2Kb^− […] tetramer^+CD69^+ activated CD8 population from the control and RS-127445 treated MC38 tumor-bearing mice. (J-K) Flow cytometric data and statistical analysis of the percentage of intra-tumoral H-2K^b-[…] tetramer^+IFN-γ^+Granzyme B^+CD8 T cell population from the control and RS-127445 treated MC38 tumor-bearing mice. (D-E) Histogram overlay and statistical data comparison showing relative MFI of granzyme B on IFN-γ^+ OT-I-tetramer^+ CD8a^+ T cells from MC38-ova tumor of control and RS-127445 treated mice. The data shown are representative of one of the two independent experiments. All the statistical analysis was performed using either Student's t-test or two-way ANOVA using Sidak's multiple comparison test. *P<0.05; **P<0.01; […]; ****P<0.0001 Error bar represents mean±standard error of means (SEM).
# FIG. 12 depicts that 5-HTR2B signalling affects the antigen-specific proliferation of CD4 T cells: (A-B) Total CD4 T cells were harvested from the lymph node of OT-II mice and they were tagged with CFSE and cultured in vitro in the presence or absence of OT-II peptide (Ova323-339), IL-2, 5-HTR2B agonist BW-723C86 (10 μM), Serotonin (20 μM) or 5-HTR2B antagonist RS-127445 (15 μM) for 5 days. After 5 days the proliferation of OT-II tetramer^+ CD4 T cells was measured and plotted as histogram overlay (A) or as statistical data (B). (C-D) Flow cytometric data and statistical analysis of the percentage of intra-tumoral OT-II-tetramer^+ IFNγ^+ CD4 T cell population from the control and RS-127445 treated MC38-ova tumor-bearing mice. (E-F) Flow cytometric data and statistical analysis of the percentage of intra-tumoral OT-II-tetramer^+ IFNγ^+ CD4 T cell population from the control and RS-127445 treated MC38-ova tumor-bearing mice. (G) Histogram overlay and statistical data comparison showing relative MFI of IL-10 on OT-II-tetramer^+ CD4^+ T cells from MC38-ova tumor of control and RS-127445 treated mice. All the statistical analysis was performed using either Student's ‘t’ test or two-way ANOVA using Sidak's multiple comparison test. *P<0.05; **P<0.01; […]; ****P<0.0001 Error bar represents mean±standard error of means (SEM).
# A simple adoptive transfer experiment was performed to study the enhancement of CTL response in general or antigen-specific. […]
SMILES,percentage of MC38 cells in the S phase of the cell cycle (MC38 cells),"Ova-specific IFNγ+ CD4 T cells in the tumor ([1]; MC38-cOVA tumor, OT-II tetramer (FIG. 12C-D))","Ova-specific IL-10+ CD4 T cells in the tumor ([1]; MC38-cOVA tumor, OT-II tetramer (FIG. 12E-G))",CD69+ activated OVA-specific CTLs percentage in the tumor ([1]; OT-I tetramer (FIG. 11H-I)),IFNγ+ granzyme B+ effector OVA-specific CTLs percentage in the tumor ([1]; OT-I tetramer (FIG. 11J-M)),"overall percentage of OVA-specific CD8 T cell in the tumor ([1]; OT-I tetramer, MC38-ova tumor (FIG. 11F-G))","proliferation of CD8 T cells in the presence of OVA in vitro ([1]; cells from treated MC38-cOVA tumor-bearing mice, ovalbumin 50 μg/ml, 5 days, CFSE (FIG. 11D-E))"
CC(N)Cc1c[nH]c2ccc(OCc3cccs3)cc12 (stereo not shown) [BW-723C86],increased percentage of cells in the S phase,,,,,,
CC(C)c1cc(-c2ccc(F)c3ccccc23)nc(N)n1 [RS-127445],,increased,reduced,enhanced,enhanced,did not enhance the overall percentage,proliferated at a better rate
